The supplement of paper PMC11061612

Assays:
[1] = compound: CC1(C)CCC(CN2CCN(c3ccc(C(=O)NS(=O)(=O)c4ccc(NCC5CCOCC5)c([N+](=O)[O-])c4)c(Oc4cnc5[nH]ccc5c4)c3)CC2)=C(c2ccc(Cl)cc2)C1 [Venetoclax]; details: max 1 µM
Method in brief: (§1)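 Plates with 1536 wells received cancer cell lines in 7.5 μl of DMEM/F12 or RPMI containing 10% FBS. After 24 hours at 37°C and 5% CO2, cells were dosed for 72 hours with final DMSO typically 0.2%, and viability was read by CellTiter-Glo 2.0 luminescence scaled between blank-well and DMSO-well means. The single-agent IC50 was taken from a logistic fit of the dose responses made with a non-linear mixed effects model, that logistic curve having two parameters.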

[2] = compound: COc1nnc2ccc(N3CCC(c4ccc(OCCN5CCN(C)C(=O)[C@H]5C)cc4)CC3)nn12 [AZD5153]; details: max 1 µM
Method in brief: as §1

[3] = compound: C[C@@H](Nc1cc(F)cc(F)c1)c1cc(C(=O)N(C)C)cc2c(=O)cc(N3CCOCC3)oc12 [AZD8186]; details: max 3 µM
Method in brief: as §1

[4] = compound: Cc1c2c(nn1C)CSCc1cc(n(C)n1)CSc1cc(c3ccccc3c1)OCCCc1c(C(=O)O)n(C)c3c-2c(Cl)ccc13 [AZD5991]; details: max 1 µM
Method in brief: as §1

[5] = compound: CN(CC[C@H](CSC1=CC=CC=C1)NC2=C(C=C(C=C2)S(=O)(=O)NC(=O)C3=CC=C(C=C3)N4CCC(CC4)[C@H](C5=CC=CC=C5C6=CC=C(C=C6)Cl)O)S(=O)(=O)C(F)(F)F)CCO [AZD4320]; details: max 1 µM
Method in brief: as §1

[6] = compound: Cc1nc(-c2cn3c(n2)-c2ccc(-c4cnn(C(C)(C)C(N)=O)c4)cc2OCC3)n(C(C)C)n1 [Taselisib]; details: max 10 µM
Method in brief: as §1

[7] = compound: C[C@@H](Oc1cc(-c2cnn(C3CCNCC3)c2)cnc1N)c1c(Cl)ccc(F)c1Cl [Crizotinib]; details: max 10 µM
Method in brief: as §1

[8] = compound: Cn1cnc2c(F)c(Nc3ccc(Br)cc3Cl)c(C(=O)NOCCO)cc21 [Selumetinib]; details: max 10 µM
Method in brief: as §1

[9] = compound: C=CCn1c(=O)c2cnc(Nc3ccc(N4CCN(C)CC4)cc3)nc2n1-c1cccc(C(C)(C)O)n1 [AZD1775]; details: max 3 µM
Method in brief: as §1

[10] = compound: C[C@@H]1COCCN1C2=NC(=NC(=C2)C3(CC3)[S@](=N)(=O)C)C4=C5C=CNC5=NC=C4 [AZD6738]; details: max 10 µM
Method in brief: as §1

[11] = compound: CC(=O)Nc1cccc(-n2c(=O)n(C3CC3)c(=O)c3c(Nc4ccc(I)cc4F)n(C)c(=O)c(C)c32)c1 [Trametinib]; details: max 1 µM
Method in brief: as §1

[12] = compound: COc1cccc(OCCCN)c1-c1cc(Nc2cnc(C#N)cn2)n[nH]1 [Prexasertib]; details: max 1 µM
Method in brief: as §1

[13] = compound: CN(C)CCCOc1ccc(-c2ccc3ncc4c(c3c2)n(C2CCOCC2)c(=O)n4C)cn1 [AZD0156]; details: max 3 µM
Method in brief: as §1

[14] = compound: C1CN(CCC1(C(=O)N[C@@H](CCO)C2=CC=C(C=C2)Cl)N)C3=NC=NC4=C3C=CN4 [Capivasertib]; details: max 10 µM
Method in brief: as §1

[15] = compound: CCc1c2c(nc3ccc(O)cc13)-c1cc3c(c(=O)n1C2)COC(=O)[C@]3(O)CC [SN-38]; details: max 0.3 µM
Method in brief: as §1

[16] = compound: COc1cc(Nc2ncc3c(n2)-c2ccc(Cl)cc2C(c2c(F)cccc2OC)=NC3)ccc1C(=O)O [Alisertib]; details: max 10 µM
Method in brief: as §1

[17] = compound: Cc1cc2ncnn2cc1Nc1ncc2c(n1)n(C1CCOCC1)c(=O)n2C [AZD7648]; details: max 10 µM
Method in brief: as §1

[18] = compound: COc1cccc2c1C(=O)c1c(O)c3c(c(O)c1C2=O)C[C@@](O)(C(=O)CO)C[C@@H]3O[C@H]1C[C@H](N)[C@H](O)[C@H](C)O1 [Doxorubicin]; details: max 1 µM
Method in brief: as §1

[19] = compound: CC1=CN2[C@@H](C1)C=NC3=CC(=C(C=C3C2=O)OC)OCCCCCOC4=C(C=C5C(=C4)N=C[C@@H]6CC(=CN6C5=O)C)OC [SG3199]; details: max 0.001 µM
Method in brief: as §1

[20] = compound: O=C(c1cc(Cc2n[nH]c(=O)c3ccccc23)ccc1F)N1CCN(C(=O)C2CC2)CC1 [Olaparib]; details: max 10 µM
Method in brief: as §1

[21] = compound: CC(C)n1c(=O)n(C)c2cnc3cc(F)c(-c4ccc(OCCCN5CCCCC5)nc4)cc3c21 [AZD1390]; details: max 0.3 µM
Method in brief: as §1

[22] = compound: COc1cc2ncnc(Nc3ccc(F)c(Cl)c3)c2cc1OCCCN1CCOCC1 [Gefitinib]; details: max 10 µM
Method in brief: as §1

[23] = compound: C[C@@H](c1ccc2nccn2c1)n1nnc2ncc(-c3cnn(C)c3)nc21 [Savolitinib]; details: max 1 µM
Method in brief: as §1

[24] = compound: CS(=O)(=O)CCNCc1ccc(-c2ccc3ncnc(Nc4ccc(OCc5cccc(F)c5)c(Cl)c4)c3c2)o1 [Lapatinib]; details: max 10 µM
Method in brief: as §1

[25] = compound: CC1=C(C(=CC=C1)Cl)NC(=O)C2=CN=C(S2)NC3=CC(=NC(=N3)C)N4CCN(CC4)CCO [Dasatinib]; details: max 2 µM
Method in brief: as §1

[26] = compound: CC(=O)c1c(C)c2cnc(Nc3ccc(N4CCNCC4)cn3)nc2n(C2CCCC2)c1=O [Palbociclib]; details: max 10 µM
Method in brief: as §1

[27] = compound: CCN(CCO)CCCOc1ccc2c(Nc3cc(CC(=O)Nc4cccc(F)c4)[nH]n3)ncnc2c1 [AZD2811]; details: max 1 µM
Method in brief: as §1

Cell Line | IC50, cell viability 72 h [1] | IC50, cell viability 72 h [2] | IC50, cell viability 72 h [3] | IC50, cell viability 72 h [4] | IC50, cell viability 72 h [5] | IC50, cell viability 72 h [6] | IC50, cell viability 72 h [7] | IC50, cell viability 72 h [8] | IC50, cell viability 72 h [9] | IC50, cell viability 72 h [10] | IC50, cell viability 72 h [11] | IC50, cell viability 72 h [12] | IC50, cell viability 72 h [13] | IC50, cell viability 72 h [14] | IC50, cell viability 72 h [15] | IC50, cell viability 72 h [16] | IC50, cell viability 72 h [17] | IC50, cell viability 72 h [18] | IC50, cell viability 72 h [19] | IC50, cell viability 72 h [20] | IC50, cell viability 72 h [21] | IC50, cell viability 72 h [22] | IC50, cell viability 72 h [23] | IC50, cell viability 72 h [24] | IC50, cell viability 72 h [25] | IC50, cell viability 72 h [26] | IC50, cell viability 72 h [27]
SU-DHL-10 (B-Cell Non-Hodgkin's Lymphoma) | > 1000 nM | 9.5 nM | 1080 nM | 25.5 nM | > 1000 nM | 1340 nM | 2480 nM | > 10000 nM | 586 nM | 2620 nM | > 1000 nM | 27.2 nM | > 3000 nM | 505 nM | 13 nM | 684 nM | > 10000 nM | 442 nM | > 1 nM | > 10000 nM | > 300 nM | 7020 nM | > 1000 nM | 4970 nM | 62.8 nM | 435 nM | 29.2 nM
FADU (Head and Neck Carcinoma) | > 1000 nM | > 1000 nM | > 3000 nM | 407 nM | > 1000 nM | 3320 nM | > 10000 nM | > 10000 nM | > 3000 nM | > 10000 nM | > 1000 nM | 79.1 nM | > 3000 nM | > 10000 nM | 6.3 nM | > 10000 nM | > 10000 nM | 312 nM | > 1 nM | > 10000 nM | > 300 nM | 9020 nM | > 1000 nM | 3160 nM | > 2000 nM | > 10000 nM | > 1000 nM
GP5d (Colorectal Carcinoma) | > 1000 nM | 168 nM | > 3000 nM | 329 nM | > 1000 nM | 254 nM | 6990 nM | 340 nM | 542 nM | 3640 nM | 17.4 nM | 23.3 nM | > 3000 nM | 1500 nM | 73 nM | 5020 nM | > 10000 nM | 552 nM | > 1 nM | > 10000 nM | > 300 nM | > 10000 nM | > 1000 nM | > 10000 nM | > 2000 nM | > 10000 nM | 764 nM
